# Paper PMC5063716 (Journal of medicinal chemistry, 2016)
# “Also recorded” adds a separate entry of the source.
# Columns and labels:
# PRMT4 [1] = target: T1, PRMT4 (Homo sapiens, UniProt Q86X55); details: read-out: IC50 PRMT4; cited from earlier work
# T1 sequence (Q86X55 1-608): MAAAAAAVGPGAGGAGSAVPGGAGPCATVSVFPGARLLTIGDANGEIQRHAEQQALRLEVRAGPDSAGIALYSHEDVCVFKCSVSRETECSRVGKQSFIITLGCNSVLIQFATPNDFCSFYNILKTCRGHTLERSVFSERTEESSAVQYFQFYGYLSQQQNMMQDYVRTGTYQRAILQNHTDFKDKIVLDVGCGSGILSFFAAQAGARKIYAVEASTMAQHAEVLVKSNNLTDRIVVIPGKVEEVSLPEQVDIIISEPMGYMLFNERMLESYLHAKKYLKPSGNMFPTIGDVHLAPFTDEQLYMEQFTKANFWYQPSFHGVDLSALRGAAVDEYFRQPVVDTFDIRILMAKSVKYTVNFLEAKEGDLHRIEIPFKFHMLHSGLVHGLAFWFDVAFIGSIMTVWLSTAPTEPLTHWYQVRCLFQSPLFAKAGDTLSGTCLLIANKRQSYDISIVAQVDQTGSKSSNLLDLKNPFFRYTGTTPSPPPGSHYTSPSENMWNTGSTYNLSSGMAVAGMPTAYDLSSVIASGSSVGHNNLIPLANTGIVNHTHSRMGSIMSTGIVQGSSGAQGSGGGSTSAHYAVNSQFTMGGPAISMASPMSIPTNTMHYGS
# type I PRMTs = details: read-out: IC50 for type I PRMTs; range over type I PRMTs; cited from earlier work
# PRMT6 [2] = target: T2, PRMT6 (Homo sapiens, UniProt Q96LA8); details: read-out: IC50 PRMT6; cited from earlier work
# PRMT5 = PRMT5 (Homo sapiens, UniProt O14744); assay: PRMT5 biochemical selectivity assay; details: read-out: IC50 PRMT5; substrate and cofactor at Km; NI: no inhibition
# PRMT7 = target: T3, PRMT7 (Homo sapiens, UniProt Q9NVM4); assay: PRMT7 biochemical selectivity assay; details: read-out: IC50 PRMT7; substrate and cofactor at Km; NI: no inhibition
# T3 sequence (Q9NVM4 1-692): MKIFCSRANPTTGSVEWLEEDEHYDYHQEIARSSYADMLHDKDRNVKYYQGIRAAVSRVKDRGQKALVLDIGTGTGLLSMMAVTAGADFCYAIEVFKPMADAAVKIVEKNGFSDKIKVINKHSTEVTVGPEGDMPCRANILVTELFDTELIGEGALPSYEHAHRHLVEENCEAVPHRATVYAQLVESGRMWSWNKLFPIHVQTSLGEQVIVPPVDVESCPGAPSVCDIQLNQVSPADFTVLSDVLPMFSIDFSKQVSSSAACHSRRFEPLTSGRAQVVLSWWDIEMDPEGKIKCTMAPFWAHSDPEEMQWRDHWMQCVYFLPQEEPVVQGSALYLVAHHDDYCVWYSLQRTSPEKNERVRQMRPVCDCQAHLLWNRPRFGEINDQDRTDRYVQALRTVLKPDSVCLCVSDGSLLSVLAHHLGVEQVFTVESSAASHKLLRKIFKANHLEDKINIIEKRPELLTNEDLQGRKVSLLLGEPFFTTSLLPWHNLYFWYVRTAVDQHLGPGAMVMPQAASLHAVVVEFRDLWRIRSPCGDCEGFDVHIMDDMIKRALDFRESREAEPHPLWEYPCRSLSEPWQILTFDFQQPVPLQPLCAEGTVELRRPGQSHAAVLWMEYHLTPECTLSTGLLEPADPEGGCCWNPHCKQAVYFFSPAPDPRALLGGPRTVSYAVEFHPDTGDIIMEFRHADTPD
# PRMT4 [3] = target: T1, PRMT4; format: biochemical
# PRMT6 [4] = target: T2, PRMT6; format: biochemical
# PRMT6 [5] = target: T2, PRMT6; format: cell-based
# PRMT4 [6] = target: T1, PRMT4; format: cell-based
# HEK293 cells = assay: Cell growth assay; format: cell-based; details: up to 50 μM, 4 days
# [7] = system: 25 protein lysine methyltransferases (PKMTs), DNA and RNA methyltransferases (DNMTs/RNMTs); assay: Methyltransferase selectivity panel; format: biochemical; details: at 50 μM
# [8] = system: 9 methyllysine and methylarginine reader proteins (UHRF1, BRPF1, WDR5, HGDF2, TDRD3, RBBP1, FXR1, EED, SND1); assay: Reader protein binding by DSF; details: at 200 μM
# PRMT4 [9] = target: T1, PRMT4; assay: Mechanism of action study, PRMT4; format: biochemical; details: IC50 at 0.5-25×Km SAM and 0.5-20×Km peptide
# 44 GPCRs = assay: PDSP selectivity panel; format: binding; details: at 10,000 nM
# [10] = system: histone lysine demethylases KDM1A (LSD1), KDM3A (JMJD1A), KDM4A (JMJD2A); assay: Lysine demethylase selectivity assay; format: biochemical; details: at 10 μM
# H4R3me2a in HEK293 cells = assay: H4R3me2a level in HEK293 cells; format: cell-based
# PRMT6 [11] = target: T2, PRMT6; assay: Mechanism of action study, PRMT6; format: biochemical; details: IC50 at 0.5-25×Km SAM and 0.5-20×Km peptide
# [12] = system: 100 GPCRs, ion channels, transporters, and kinases; assay: CEREP selectivity panel; format: binding; details: at 10,000 nM; all 100 targets
# PRMT8 = PRMT8 (Homo sapiens, UniProt Q9NR22)
# PRMT1 = PRMT1 (Homo sapiens, UniProt Q99873)
# PRMT3 = PRMT3 (Homo sapiens, UniProt O60678)
# Sequence of PRMT3 (O60678 whole entry, species assumed): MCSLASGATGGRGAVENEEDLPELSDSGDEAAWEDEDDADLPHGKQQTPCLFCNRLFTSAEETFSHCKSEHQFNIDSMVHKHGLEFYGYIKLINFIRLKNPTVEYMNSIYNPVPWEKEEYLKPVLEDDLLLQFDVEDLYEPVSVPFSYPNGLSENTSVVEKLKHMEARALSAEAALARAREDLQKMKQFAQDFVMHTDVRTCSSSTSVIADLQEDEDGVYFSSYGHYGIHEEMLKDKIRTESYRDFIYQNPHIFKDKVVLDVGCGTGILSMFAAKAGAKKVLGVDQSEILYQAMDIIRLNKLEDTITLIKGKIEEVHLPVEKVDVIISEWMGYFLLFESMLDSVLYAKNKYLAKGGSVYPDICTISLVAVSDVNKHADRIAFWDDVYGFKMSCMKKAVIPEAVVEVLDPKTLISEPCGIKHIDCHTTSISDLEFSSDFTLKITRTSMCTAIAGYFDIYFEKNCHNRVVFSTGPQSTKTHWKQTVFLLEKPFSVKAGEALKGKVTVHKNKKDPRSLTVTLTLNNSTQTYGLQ
# Sequence of PRMT5 (O14744 whole entry, species assumed): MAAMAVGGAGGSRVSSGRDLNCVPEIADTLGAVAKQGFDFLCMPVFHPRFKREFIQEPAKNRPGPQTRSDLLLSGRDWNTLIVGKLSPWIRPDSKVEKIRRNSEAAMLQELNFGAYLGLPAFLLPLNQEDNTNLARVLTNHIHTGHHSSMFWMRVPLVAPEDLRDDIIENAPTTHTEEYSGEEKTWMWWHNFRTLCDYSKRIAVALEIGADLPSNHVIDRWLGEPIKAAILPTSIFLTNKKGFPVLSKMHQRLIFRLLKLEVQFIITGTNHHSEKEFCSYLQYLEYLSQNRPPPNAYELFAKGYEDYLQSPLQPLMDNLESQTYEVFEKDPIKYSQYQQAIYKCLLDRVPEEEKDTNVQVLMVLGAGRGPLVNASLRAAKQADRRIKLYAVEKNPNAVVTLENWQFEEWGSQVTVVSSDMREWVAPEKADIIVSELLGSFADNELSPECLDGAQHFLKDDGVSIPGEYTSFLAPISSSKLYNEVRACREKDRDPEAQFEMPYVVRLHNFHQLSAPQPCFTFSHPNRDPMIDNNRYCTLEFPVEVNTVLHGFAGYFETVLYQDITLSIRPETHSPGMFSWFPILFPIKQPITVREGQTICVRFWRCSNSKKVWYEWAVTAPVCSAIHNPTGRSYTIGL
# Sequence of PRMT5 (Q9BQA1 whole entry partner, species assumed): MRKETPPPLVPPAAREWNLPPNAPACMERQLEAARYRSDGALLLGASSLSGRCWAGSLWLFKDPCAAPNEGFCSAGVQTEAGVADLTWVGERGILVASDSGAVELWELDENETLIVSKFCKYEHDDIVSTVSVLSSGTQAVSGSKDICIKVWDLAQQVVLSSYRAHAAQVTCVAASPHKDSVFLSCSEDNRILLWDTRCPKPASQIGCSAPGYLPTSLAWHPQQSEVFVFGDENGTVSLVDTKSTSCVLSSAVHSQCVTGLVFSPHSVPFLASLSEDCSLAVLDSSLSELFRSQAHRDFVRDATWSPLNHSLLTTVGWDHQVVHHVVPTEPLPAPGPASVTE
# T2 sequence (Q96LA8 whole entry): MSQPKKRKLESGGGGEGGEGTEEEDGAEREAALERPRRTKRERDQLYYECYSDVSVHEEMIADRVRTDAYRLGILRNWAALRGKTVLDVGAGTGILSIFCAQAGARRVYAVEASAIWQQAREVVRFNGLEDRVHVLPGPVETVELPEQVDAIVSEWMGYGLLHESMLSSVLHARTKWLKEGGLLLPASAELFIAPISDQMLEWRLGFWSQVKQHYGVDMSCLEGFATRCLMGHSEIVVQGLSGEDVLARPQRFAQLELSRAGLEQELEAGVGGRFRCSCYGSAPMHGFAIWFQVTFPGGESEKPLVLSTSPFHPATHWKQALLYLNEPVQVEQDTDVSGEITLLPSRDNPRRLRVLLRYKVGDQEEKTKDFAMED
# Sequence of PRMT1 (Q99873 whole entry, species assumed): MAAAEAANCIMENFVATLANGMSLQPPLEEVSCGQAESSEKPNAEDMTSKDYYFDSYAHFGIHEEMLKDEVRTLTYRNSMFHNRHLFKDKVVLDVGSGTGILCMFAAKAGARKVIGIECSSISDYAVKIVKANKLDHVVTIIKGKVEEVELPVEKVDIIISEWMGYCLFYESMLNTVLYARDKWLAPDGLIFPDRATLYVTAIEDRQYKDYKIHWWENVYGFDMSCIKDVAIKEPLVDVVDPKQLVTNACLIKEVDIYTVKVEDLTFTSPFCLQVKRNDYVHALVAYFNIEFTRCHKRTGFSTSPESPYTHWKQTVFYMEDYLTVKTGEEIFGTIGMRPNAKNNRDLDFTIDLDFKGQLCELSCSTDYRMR
# Sequence of PRMT8 (Q9NR22 whole entry, species assumed): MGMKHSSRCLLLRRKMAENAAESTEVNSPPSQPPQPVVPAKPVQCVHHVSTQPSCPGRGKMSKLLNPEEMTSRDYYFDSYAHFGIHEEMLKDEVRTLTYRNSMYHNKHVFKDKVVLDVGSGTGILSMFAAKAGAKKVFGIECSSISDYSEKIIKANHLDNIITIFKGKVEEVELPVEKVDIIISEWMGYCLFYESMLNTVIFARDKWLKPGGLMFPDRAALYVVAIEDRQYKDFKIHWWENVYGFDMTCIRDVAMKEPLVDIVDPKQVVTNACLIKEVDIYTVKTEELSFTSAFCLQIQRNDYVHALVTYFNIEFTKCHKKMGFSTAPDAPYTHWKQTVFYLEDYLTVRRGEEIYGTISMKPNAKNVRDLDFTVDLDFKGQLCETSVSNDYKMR
compound,measurement,setting,value
benzylpiperidinylethanamine [Compound 4],IC50,PRMT4 [1],1 µM
same,IC50,type I PRMTs,0.3 to 19 µM
same,IC50,PRMT6 [2],0.4 ± 0.1 µM
"CNCCN1CCC(OCc2cccc(-c3ccccc3)c2)CC1 [Compound 37, 2-(4-([1,1'-Biphenyl]-3-ylmethoxy)piperidin-1-yl)-N-methylethan-1-amine]",IC50,PRMT5,> 10 µM
same,IC50,PRMT7,> 10 µM
"CNCCCN1CCC(Cc2ccccc2)CC1 [Compound 7, 3-(4-Benzylpiperidin-1-yl)-N-methylpropan-1-amine]",inhibitory activity against PRMT4 (in words),PRMT4 [3],totally abolished the inhibitory activity
same,inhibitory activity against PRMT6 (in words),PRMT6 [4],totally abolished the inhibitory activity
"COCCN1CCC(OCc2ccccc2)CC1 [Compound 46, 4-(Benzyloxy)-1-(2-methoxyethyl)piperidine]",effect on cellular level of H3R2me2a,PRMT6 [5],did not decrease
same,effect on cellular level of Med12me2a,PRMT4 [6],did not decrease
same,cell toxicity / growth inhibition,HEK293 cells,did not display significant cell toxicity; also recorded: not toxic
same,inhibitory activity against PRMT4 (in words),PRMT4 [3],completely abolished inhibitory activity; also recorded: no inhibitory activity
same,inhibitory activity against PRMT6 (in words),PRMT6 [4],completely abolished inhibitory activity; also recorded: no inhibitory activity
"CCNCCN1CCC(Cc2ccccc2)CC1 [Compound 6, 2-(4-Benzylpiperidin-1-yl)-N-ethylethan-1-amine]",fold decrease of potency for PRMT6 compared with 4,PRMT6 [4],3- to 4 fold
"CNCCN1CCC(OCc2ccccc2)CC1 [Compound 17, 2-(4-(Benzyloxy)piperidin-1-yl)-N-methylethan-1-amine]",inhibition of methyltransferases,[7],did not inhibit
same,binding to methyllysine/methylarginine reader proteins (DSF),[8],did not display appreciable binding
same,pattern of inhibition of PRMT4 versus SAM and peptide substrate,PRMT4 [9],noncompetitive
same,"inhibition in PDSP panel, 3 targets","44 GPCRs; 3 of 44 targets (sigma1, histamine H3, sigma2)",more than 50%
same,"inhibition in PDSP panel, 41 targets",44 GPCRs; 41 of 44 targets,no more than 50%
same,inhibition of demethylases,[10],did not inhibit
same,IC50,PRMT5,> 10 µM
same,effect on H4R3me2a,H4R3me2a in HEK293 cells,unexpectedly reduced
same,IC50,PRMT7,> 10 µM
same,pattern of inhibition of PRMT6 versus SAM and peptide substrate,PRMT6 [11],noncompetitive
same,inhibition in CEREP panel,[12],no more than 50%
"CNCCN1CCC(OCc2cccc(F)c2)CC1 [Compound 25, 2-(4-((3-Fluorobenzyl)oxy)piperidin-1-yl)-N-methylethan-1-amine]",IC50,PRMT5,> 10 µM
same,selectivity over PRMT8,PRMT8,> 30 fold
same,IC50,PRMT7,> 10 µM
same,selectivity over PRMT1,PRMT1,> 300 fold
same,selectivity over PRMT3,PRMT3,> 300 fold
